# Read-outs that look alike come from different tables or passages of the source. Square brackets hold non-standard residues; d marks the D form. Peptide text beside a SMILES is read from it. * marks the point of attachment. X1 = OC[C@H]1O[C@@H](O[C@H]2[C@H](O)[C@@H](O)[C@H](*)O[C@@H]2CO)[C@H](O)[C@@H](O)[C@H]1O
# How the values were obtained:
# [1] = Equilibrium solubility by shake-flask method (SFM); assay type: physicochemical
# Method: The solubility of the unionized form of raw (unprocessed) Lactomorphin was determined by the shake-flask method (SFM) using conditions similar to previously reported. For each reported solubility result, three independent SFM experiments were carried out in parallel in the following solvents (purified water, PBS, NS, methanol, and ethanol). For each experiment, the solid sample of Lactomorphin was added using a spatula to a specific volume of each solvent in closed, light-protected glass vials while shaking the vial until a heterogeneous system of the solid sample and the solvent was achieved. Samples were visually inspected to ensure that solid Lactomorphin was still in excess in each vial. The solution containing solid excess of the Lactomorphin was then capped and allowed to agitate using the shaker for 24 h at room temperature (25 °C). The presence of precipitation was checked after several hours. If dissolution was complete, more solid Lactomorphin was added to the vial.
# The pH values of Lactomorphin ampholyte suspensions were adjusted to the isoelectric point to determine the solubilities of the zwitterionic species point and to assure the predominant presence of the unionized form of Lactomorphin. The pH of each Lactomorphin suspension in each solvent (except in methanol and ethanol, which were just measured) was adjusted by using 0.1 M NaOH/0.1 M HCl to a value of 8.5. The pH values for all vials were checked after saturation, several hours after the shaking process started, and after equilibrium was achieved. Separating saturated solution and precipitate by sedimentation was performed, which is more accurate than filtration since the filtration step is labor-intensive and tedious, it has been a known issue that drug loss can occur through membrane absorption during filtration in the SFM [32]. Aliquots of supernatant were then taken out with a micropipette from all saturated solutions and diluted with each corresponding solvent. Analytical HPLC measured the concentration of Lactomorphin in each aliquot in against freshly prepared calibration curves. As mentioned above, three independent SFMs were made for each reported result. Thus, the reported results were the mean of three measured concentrations and the standard deviation of the mean (n = 3, mean ± Standard deviation).
# The HPLC system was LC-2010HT next generation HPLC (SHIMADZU Tokyo, Japan), comprised of a degassing unit, low-pressure gradient unit, pump unit, mixer, ultra-fast autosampler, column oven, and a UV-VIS detector with a thermostatted flow cell. System. The analysis was performed by a reverse phase HPLC assay, using Phenomenex Prodigy 5 um ODS (3) 250 × 4.6 mm HPLC Column. Ultraviolet detection was done at 280 nm. Mobile phase conditions were gradient of acetonitrile (CH3CN) in water (H2O) with 0.1% trifluoroacetic acid (F3CCOOH) at a 1 mL/min flow rate. The injection volume was 20 μL; the retention time for Lactomorphin was ~8.5 min. Quantification was determined using peak area and calculated from a nine-point standard curve; standard curve points were prepared by dilution in water.
# [2] = system: H441 lung adenocarcinoma cells; assay: Resazurin cell viability assay, H441; settings: 48 h exposure, 0.1, 1, 10 and 1000 µg/mL, resazurin fluorescence, p > 0.05
compound,measurement,setting,value
"CC(C)C[C@H](NC(=O)[C@H](Cc1ccccc1)NC(=O)CNC(=O)[C@H](NC(=O)[C@@H](N)Cc1ccc(O)cc1)[C@H](C)O)C(=O)N[C@@H](CO[C@@H]1O[C@H](CO)[C@@H](O[C@@H]2O[C@H](CO)[C@H](O)[C@H](O)[C@H]2O)[C@H](O)[C@H]1O)C(N)=O [Lactomorphin, H2N-Tyr-D-Thr- Gly-Phe-Leu-Ser-(O-β-Lactoside)-CONH2] (H-Y[dT]GFLS(X1)-NH2)","Solubility (USP) Definition, PBS","[1]; PBS, pH 8.50 (adjusted), 25 °C","Freely soluble (Fs) (all these solubility values fell in the range of 100–1000 mg/mL, which is the freely soluble category)"
same,solubility thermodynamic at 24 h,"[1]; aqueous buffer, thermodynamic from solid, water, NS and PBS, shake-flask, pH 8.5, 25 °C, read-out: aqueous solubility",> 100 mg/mL
same,"Solubility (USP) Definition, Ethanol","[1]; ethanol, pH 7.30 (measured), 25 °C",Sparingly soluble (sps)
same,"Calculated Log S, NS","[1]; from experimental solubility, footnote: S in mMoleunit, NS, pH 8.50",−0.9
same,"Calculated Log S, PBS","[1]; from experimental solubility, footnote: S in mMoleunit, PBS, pH 8.50",−0.3
same,"Calculated Log S, Ethanol","[1]; from experimental solubility, footnote: S in mMoleunit, ethanol",−1.7
same,"Calculated Log S, Methanol","[1]; from experimental solubility, footnote: S in mMoleunit, methanol",−1.3
same,"Calculated Log S, Water","[1]; from experimental solubility, footnote: S in mMoleunit, water, pH 8.50",−0.6
same,"Solubility (USP) Definition, Methanol","[1]; methanol, pH 7.27 (measured), 25 °C",Soluble (s)
same,solubility thermodynamic at 24 h,"[1]; normal saline (NS), pH 8.5, saline or isotonic, thermodynamic from solid, thermodynamic shake-flask, excess solid, normal saline, pH 8.50 (adjusted), shaken 24 h, 25 °C, HPLC-UV 280 nm, mean ± SD, n = 3, read-out: Solubility in NS",140.4 ± 0.32 mg/mL
same,"Solubility (USP) Definition, NS","[1]; normal saline, pH 8.50 (adjusted), 25 °C","Freely soluble (Fs) (all these solubility values fell in the range of 100–1000 mg/mL, which is the freely soluble category)"
same,solubility thermodynamic at 24 h,"[1]; pH 8.5, aqueous buffer, thermodynamic from solid, thermodynamic shake-flask, excess solid, PBS, pH 8.50 (adjusted), shaken 24 h, 25 °C, HPLC-UV 280 nm, mean ± SD, n = 3, read-out: Solubility in PBS",570.3 ± 2 mg/mL
same,solubility thermodynamic at 24 h,"[1]; pH 8.5, thermodynamic from solid, thermodynamic shake-flask, excess solid raw Lactomorphin, purified water, pH 8.50 (adjusted with 0.1 M NaOH/HCl), shaken 24 h, 25 °C, sedimentation, HPLC-UV 280 nm, mean ± SD, n = 3, read-out: Solubility in Water",267 ± 6 mg/mL
same,Solubility in Ethanol,"[1]; thermodynamic shake-flask, excess solid, ethanol, pH 7.30 (measured), shaken 24 h, 25 °C, HPLC-UV 280 nm, mean ± SD, n = 3",18.00 ± 0.00 mg/mL
same,Solubility in Methanol,"[1]; thermodynamic shake-flask, excess solid, methanol, pH 7.27 (measured), shaken 24 h, 25 °C, HPLC-UV 280 nm, mean ± SD, n = 3",45.67 ± 1.00 mg/mL
same,"Solubility (USP) Definition, Water","[1]; water, pH 8.50 (adjusted), 25 °C","Freely soluble (Fs) (all these solubility values fell in the range of 100–1000 mg/mL, which is the freely soluble category)"
same,relative cell viability% vs control,[2],no statistically significant difference
